The values that follow are results of earlier work, collected in patent US20110286960A1, “CANCER THERAPY BY DOCETAXEL AND GRANULOCYTE COLONY-STIMULATING FACTOR (G-CSF)” (OPTIMATA LTD., priority 2008, published 2011).

Where two headings read alike, the source gives them in different places.

The term AUC denotes the area under the concentration-time curve, a measure of exposure. Usually Cmax stands for the highest concentration seen after dosing.

Series [1] has as its system neutrophils. The conditions noted are these: for nadir of neutrophil level: human, in vivo.
The conditions of series [2]: Baker et al., 2004, mean ± STD.
The test system of series [3] is neutrophils. The conditions noted are these: G-CSF treatment one day post-chemotherapy.
The mark [4] stands for this setting: docetaxel clinical trial results (17, 28).

Consider `CC(=O)O[C@@]12CO[C@@H]1C[C@H](O)[C@@]1(C)C(=O)[C@H](O)C3=C(C)[C@@H](OC(=O)[C@H](O)[C@@H](NC(=O)OC(C)(C)C)c4ccccc4)C[C@@](O)([C@@H](OC(=O)c4ccccc4)[C@H]21)C3(C)C` [Docetaxel], for which the “docetaxel clearance, CYP3A-affected clinically observed range” value is 5.4-29.1 Uhr/m^2. Further, the “patients suffering grade 3/4 neutropenia” value in the series with neutrophils [1] (14 patients, weekly docetaxel 40-45 mg/m^2, three consecutive weeks in cycles of four weeks (38)) is on record as “Half”. Besides, in the series with neutrophils [1] (setting [4]), the “nadir recorded on days” value is 6 to 10 days and the “recovery to baseline recorded on days” value was 16 to 22 days. In addition, in the series with neutrophils [1] (docetaxel dose up to 145 mg/m^2, as reported in (36)), the neutropenia entry is listed as “acceptable neutropenia”. For the same molecule, the “patients suffering grade 3/4 neutropenia” value in the series with neutrophils [1] (patients receiving 30-35 mg/m2/week (38)) is given as “none”. Besides, where the note is “CYP3A inter-individual variability (27)”, the “docetaxel clearance, observed range” value is recorded as 5.4-29.1 L/hr/m^2. In series [2] (35 mg/m^2), the AUC is 1.32 ± 0.42 µg·h/mL, the Clearance was 29.10 ± 10.20 L/h*m^2, the Cmax is 1.85 ± 0.73 µg/mL and the Terminal half life is reported as 15.60 ± 12.00 h. Also, in series [2] (100 mg/m^2), the AUC was 5.62 ± 2.12 µg·h/mL, the Clearance is 19.60 ± 5.60 L/h*m^2, the Cmax was 4.15 ± 1.35 µg/mL and the Terminal half life is recorded as 17.20 ± 6.20 h.

On to `CC[C@]12C=CCN3CC[C@@]4(c5cc([C@@]6(C(=O)OC)C[C@@H]7C[C@@H](C(C)(F)F)CN(Cc8c6[nH]c6ccccc86)C7)c(OC)cc5N(C)[C@H]4[C@@](O)(C(=O)OC)[C@@H]1OC(C)=O)[C@@H]32` [vinflunine], for which, in the series with neutrophils [1], the “nadir of neutrophil level” value was 20 days.

For the molecule `CCc1c2c(nc3ccc(OC(=O)N4CCC(N5CCCCC5)CC4)cc13)-c1cc3c(c(=O)n1C2)COC(=O)[C@]3(O)CC` [Irinotecan], the “nadir of neutrophil level” value with neutrophils [1] was 9 days.

B1: G-CSF: Granulocyte Colony-Stimulating Factor, neutropenia alleviating support therapy (protein, UniProt P09919 31-207, looked up)
Granulocyte …: TPLGPASSLPQSFLLKCLEQVRKIQGDGAALQEKLVSECATYKLCHPEELVLLGHSLGIPWAPLSSCPSQALQLAGCLSQLHSGLFLYQGLLQALEGISPELGPTLDTLQLDVADFATTIWQQMEELGMAPALQPTQGAMPAFASAFQRRAGGVLVASHLQSFLEVSYRVLRHLAQP
Turning to B1, in the series on neutrophils [1] (G-CSF post-docetaxel, locally advanced breast cancer (10) or advanced NSCLC patients (11)), the “grade 4 neutropenia reported” value is recorded as “No grade 4 neutropenia”. Further, the effect on neutropenia entry in the series on neutrophils [3] is “speeds up and aggravates neutropenia”.
